{"source": "paper PMC6921279", "about": "(Frontiers in Endocrinology, 2019)", "key": {"[1]": {"test_system": "CRF1R-mediated ERK1/2 phosphorylation", "test": "Modulation of CRF-stimulated ERK1/2 phosphorylation in COS-7 cells expressing HA-CRF1R", "type": "cell-based", "conditions": "100 nM CRF, 5 min", "protocol": "(§1) Plasmid pRK5 encoding the carboxyl terminus of βARK that contains its βγ-binding domain (ct-βARK) was kindly provided by Dr. W. Koch (Center for Translational Medicine, Temple University, Philadelphia, PA), which is a scavenger for G protein βγ subunits ([25]). […] Plasmid pUSEamp encoding dominant-negative Akt-K179M (dn-Akt) was from Upstate Biotechnology (Lake Placid, NY).\n(§2) COS-7 cells (from the American Type Culture Collection) were cultured at 37°C in a humidified atmosphere of 95% air, 5% CO2, in DMEM supplemented with 10% FBS, 100 μg/ml streptomycin, and 100 units/ml penicillin (COS-7 growth medium). Transient transfections were performed using LipofectAMINE (Life Technologies: Gaithersburg, MD) as described previously ([27]). Cells were seeded at 8 × 10^5 cells/10-cm dish in COS-7 medium and cultured for 3 days before transfection. COS-7 cells were transfected in 5 ml/dish OptiMEM containing 10 μg/ml LipofectAMINE with empty vector, pcDNA3 encoding the HA-CRF1R or the HA-CRF1R-Δ386 mutant. […] After replacing the transfection medium with fresh growth medium, transfected COS-7 cells were cultured for 1 day. Subsequently, cells were re-seeded in 6-well plates and cultured for an additional day prior to the experiment.\n(§3) The protocols for measuring total and phosphorylated ERK1/2, c-Src, PYK2, Akt, and EGFR have been previously published ([28], [29]). After cells were cultured to 60–70% confluence, they were serum-deprived for 24 h. On the day of the experiment, cells were treated with the indicated ligands and inhibitors. […] After treatment, cells were placed on ice, the media was aspirated, and the cells were washed twice with ice-cold PBS and lysed in 100 μl of Laemmli sample buffer 1X. The lysates were briefly sonicated, heated at 95°C for 5 min, and centrifuged for 5 min at 14,000 rpm. Resulting supernatants were loaded in separate lanes of a 10% SDS-PAGE gels and electrophoresed. Next, Western transfer on to PDVF membranes was completed. The Western blots were then probed with specific antibodies targeting phosphorylated and non-phosphorylated forms of ERK1/2, c-Src, PYK2, Akt, and EGFR for primary immunodetection. After blots were probed with horseradish peroxidase-conjugated secondary antibody, protein bands were visualized with enhanced chemiluminescence ECL reagent (Amersham Pharmacia Biotech, Piscataway, NJ or Pierce Biotechnology, Rockford, IL) and scanned using the GS-800 Calibrated Imaging Densitometer (Bio-Rad). The labeled bands were quantified using the Quantity One 4.6.3 software program (Bio-Rad).\nTotal cell lysates were separated by SDS-PAGE and analyzed by immunoblotting with anti-p-ERK1/2 Thr^202/Tyr^204, as described in Materials and Methods. ERK1/2 phosphorylation was quantitated by densitometry, and mean values were plotted from five independent experiments.\nTotal cell lysates were separated by SDS-PAGE and analyzed by immunoblotting with anti-p-ERK1/2 Thr^202/Tyr^204 (A–D) or anti-p-EGFR Tyr^1068 (E), as described in Materials and Methods. ERK1/2 and EGFR phosphorylation were quantitated by densitometry, and mean values were plotted from three to five independent experiments.\nTotal cell lysates were separated by SDS-PAGE and analyzed by immunoblotting with anti-p-ERK1/2 Thr^202/Tyr^204, as described in Materials and Methods. ERK1/2 phosphorylation was quantitated by densitometry, and mean values were plotted from three to five independent experiments."}, "EGFR Tyr845": {"test_system": "EGFR Tyr845", "test": "CRF-induced EGFR phosphorylation at Tyr845 in COS-7 cells expressing HA-CRF1R", "type": "cell-based", "conditions": "10 μM PP2, 30 min pretreatment; 100 nM CRF, 5 min", "protocol": "(§4) COS-7 cells (from the American Type Culture Collection) were cultured at 37°C in a humidified atmosphere of 95% air, 5% CO2, in DMEM supplemented with 10% FBS, 100 μg/ml streptomycin, and 100 units/ml penicillin (COS-7 growth medium). Transient transfections were performed using LipofectAMINE (Life Technologies: Gaithersburg, MD) as described previously ([27]). Cells were seeded at 8 × 10^5 cells/10-cm dish in COS-7 medium and cultured for 3 days before transfection. COS-7 cells were transfected in 5 ml/dish OptiMEM containing 10 μg/ml LipofectAMINE with empty vector, pcDNA3 encoding the HA-CRF1R or the HA-CRF1R-Δ386 mutant. […]\n(§5) The protocols for measuring total and phosphorylated ERK1/2, c-Src, PYK2, Akt, and EGFR have been previously published ([28], [29]). […] The labeled bands were quantified using the Quantity One 4.6.3 software program (Bio-Rad).\n(§6) Figure 6 CRF mediates EGFR phosphorylation at Tyr^845 and activation of PYK2. […] Total cell lysates were separated by SDS-PAGE and analyzed by immunoblotting with anti-p-EGFR Tyr^845 (A,B) or anti-p-PYK2 Tyr^402 (E), as described in Materials and Methods. EGFR and ERK1/2 phosphorylation were quantitated by densitometry, and mean values were plotted from three to five independent experiments. […] Src and EGFR were quantitated by densitometry, and mean values were plotted from three independent experiments. […]"}, "Src": {"test_system": "Src", "test": "CRF-induced Src phosphorylation at Tyr416 in COS-7 cells expressing HA-CRF1R", "type": "cell-based", "conditions": "10 μM PP2, 30 min pretreatment; 100 nM CRF, 5 min", "protocol": "COS-7 cells (from the American Type Culture Collection) were cultured at 37°C in a humidified atmosphere of 95% air, 5% CO2, in DMEM supplemented with 10% FBS, 100 μg/ml streptomycin, and 100 units/ml penicillin (COS-7 growth medium). Transient transfections were performed using LipofectAMINE (Life Technologies: Gaithersburg, MD) as described previously ([27]). Cells were seeded at 8 × 10^5 cells/10-cm dish in COS-7 medium and cultured for 3 days before transfection. COS-7 cells were transfected in 5 ml/dish OptiMEM containing 10 μg/ml LipofectAMINE with empty vector, pcDNA3 encoding the HA-CRF1R or the HA-CRF1R-Δ386 mutant. […] After replacing the transfection medium with fresh growth medium, transfected COS-7 cells were cultured for 1 day. […]\nas §5\nFigure 5 Role of Src tyrosine kinase in CRF-stimulated ERK1/2 phosphorylation. […] Total cell lysates were separated by SDS-PAGE and analyzed by immunoblotting with anti-p-Src Tyr^416 (A,B) or anti-p-ERK1/2 Thr^202/Tyr^204 (C–E), as described in Materials and Methods. Src, PYK2, and ERK1/2 phosphorylation were quantitated by densitometry, and mean values were plotted from three to five independent experiments. […]"}, "PYK2": {"test_system": "PYK2", "test": "CRF-induced PYK2 phosphorylation at Tyr402 in COS-7 cells expressing HA-CRF1R", "type": "cell-based", "conditions": "PP2 (discussion)", "protocol": "as §4, §5, §6"}, "[2]": {"test_system": "CRF1R-mediated Akt phosphorylation", "test": "CRF-induced Akt phosphorylation at Ser473 in COS-7 cells expressing HA-CRF1R", "type": "cell-based, human", "conditions": "PP2 10 μM, 30 min pretreatment; 100 nM CRF, 5 min", "protocol": "as §1, §2\nas §3, with “After blots were probed with horseradish peroxidase-conjugated secondary antibody, protein bands were visualized with enhanced chemiluminescence ECL reagent (Amersham Pharmacia Biotech, Piscataway, NJ or Pierce Biotechnology, Rockford, IL) and scanned using the GS-800 Calibrated Imaging Densitometer (Bio-Rad).” left out\nFigure 7 CRF mediates Akt activation. […] Total cell lysates were separated by SDS-PAGE and analyzed by immunoblotting with anti-p-Akt Ser^473, as described in Materials and Methods. Akt phosphorylation was quantitated by densitometry, and mean values were plotted from three to five independent experiments. […]"}, "rat cardiomyocytes": {"test_system": "rat cardiomyocytes", "parameters": "method as in PMID 12970163", "conditions": "CRF2R activation by Ucn2 and Ucn3; cited from earlier work"}, "β2-adrenergic receptor": {"test_system": "β2-adrenergic receptor", "parameters": "method as in PMID 15489914, PMID 11278940", "conditions": "A431 cells; cited from earlier work", "excerpt": "Moreover, there is evidence that Tyr phosphorylation of GPCRs plays a role in mediating GPCR-Src interactions ([43]). […] This residue lies within a canonical Src SH2 binding domain, and it is proposed that Src directly binds the Tyr-phosphorylated β2-AR."}, "[3]": {"test_system": "MEK1/2-mediated phosphorylation of ERK1/2", "parameters": "method as in PMID 16484629, PMID 10098484, PMID 14670995, PMID 11117536, PMID 12970163", "conditions": "CRF1R and CRF2R signaling, various cell lines; cited from earlier work"}}, "data": [{"smiles": "CC(C)(C)n1nc(-c2ccc(Cl)cc2)c2c(N)ncnc21", "note": "[PP2]", "values": [{"measurement": "effect on CRF-stimulated ERK1/2 phosphorylation", "setting": "[1]; 10 μM PP2, 30 min pretreatment", "result": "abolished CRF-stimulated ERK1/2 phosphorylation"}, {"measurement": "IC50", "setting": "[1]; PP2 0–20 μM, 30 min pretreatment, read-out: IC50, inhibition of CRF-stimulated ERK1/2 phosphorylation", "result": 2, "unit": "µM"}, {"measurement": "effect on CRF-induced EGFR Tyr845 phosphorylation", "setting": "EGFR Tyr845", "result": "blocked"}, {"measurement": "effect on CRF-induced Src phosphorylation", "setting": "Src", "result": "CRF-induced Src phosphorylation was prevented"}, {"measurement": "effect on CRF-stimulated activation of Src, PYK2, the EGFR, and ERK1/2", "setting": "PYK2", "result": "markedly reduced or abolished the CRF-stimulated activation of Src, PYK2, the EGFR, and ERK1/2"}, {"measurement": "effect on CRF-induced Akt activation", "setting": "[2]", "result": "completely inhibited"}]}, {"smiles": "CCCC[C@@H](C)/C=C(C)/C=C(\\C)C(=O)NC1=C[C@@](O)(/C=C/C=C/C=C/C(=O)NC2=C(O)CCC2=O)[C@@H]2O[C@@H]2C1=O", "note": "[manumycin A]", "values": [{"measurement": "effect on ERK1/2 phosphorylation", "setting": "rat cardiomyocytes", "result": "abolish ERK1/2 phosphorylation"}]}, {"smiles": "CC(C)NCC(O)c1ccc(O)c(O)c1", "note": "(stereo not drawn) [isoproterenol]", "values": [{"measurement": "phosphorylation of β2-AR", "setting": "β2-adrenergic receptor", "result": "results in phosphorylation of the receptor on Tyr^305"}]}, {"smiles": "COc1cccc(-c2cc(=O)c3ccccc3o2)c1N", "note": "[PD98059]", "values": [{"measurement": "effect on ERK1/2 activation", "setting": "[3]", "result": "inhibiting ERK1/2 activation"}]}]}
